Source: US12203144B2, “Analytes' detection using regulated in vitro transcription” (Northwestern University, priority 2018, dated 2025)

Columns and labels:
TetR [1] = molecular target: T1, TetR (Escherichia coli, UniProt P04483); test: TetR regulated in vitro transcription of 3WJdB, derepression by ligand; format: biochemical; details: 200 pmol of antibiotic, T7 RNAP, FIG. 7
T1 construct: 6xHis; made in house; host or cells: E. coli Rosetta 2(DE3)pLysS
Description: The family of tetracycline antibiotics are known ligands of the TetR repressor—they can induce an allosteric conformational change in TetR that results in a lowered affinity for the DNA operator sequence. Importantly, TetR repression of in vitro transcription is relieved if a cognate ligand is included immediately prior to measurement and coincident with the addition of T7 RNAP. […] This included anhydrotetracyline, tetracycline, oxytetracycline, chlortetracycline, and doxycycline. […] The 2 BP spacer (“GG”) promotes efficient transcription initiation with T7 RNAP.
Finally, to validate that the TetR regulated in vitro transcription reactions were specifically responsive to tetracycline antibiotics and that fluorescence was not due to nonspecific activity, we tested the TetR regulated in vitro transcription reaction of the 3WJdB output against macrolide antibiotics (FIG. 10A) as well as other common antibiotics used in biological research (FIG. 10B). None of the non-tetracycline antibiotics tested here is known to induce a conformational change in TetR. In all cases, strong repression of transcription was observed over the course of 2 hours except when tested against the positive control (anhydrotetracyline), or in the absence of the repressor (the unregulated reaction).

TetR [2] = molecular target: T1, TetR; test: TetR regulated in vitro transcription of 3WJdB with T3 or SP6 RNAP; format: biochemical; details: unoptimized
Description: RIViTS are modular with respect to RNA polymerase. T7 RNA polymerase is a single-subunit RNA polymerase from the T7 bacteriophage. It is closely related to the T3 and SP6 bacteriophages and their RNA polymerases are homologous. We reasoned that we could swap the T7-specific promoter from the TetR regulated in vitro transcription of 3WJdB for an SP6 or T3-specific promoter, and maintain the ability to repress and induce transcription by using the appropriate RNAP. […] We suspect that further optimization of the transcription reaction conditions (e.g. buffer composition) will substantially improve the fold-change between the repressed and derepressed states.

TetR [3] = molecular target: T1, TetR; test: TetR regulated in vitro transcription of strand-invading RNA (InvadeR), DNA output gate; format: biochemical; details: FIG. 9
Description: We next transcribed a strand-invading RNA (“InvadeR”) to illustrate that an alternative RNA output can also be visualized in real-time. The InvadeR system works through toehold-mediated strand displacement of a DNA output gate. The DNA output gate consists of 2 annealed and complementary strands (“reporter” and “quencher,” boxed in FIG. 3A). The reporter strand consists of 24 nucleotides and a 3′ fluorophore, while the quencher strand contains 16 complementary nucleotides and a 5′ quencher. When annealed, the two strands leave an 8-nucleotide single-stranded “toehold” region on the 5′ end of the reporter strand. Spatial proximity of the 3′ fluorophore and 5′ quencher results in fluorescence quenching (the “OFF” state). For the InvadeR system described here, we utilized a 3′ terminal single isomer derivative of fluorescein (6-FAM) and a quencher strand with a 5′ terminal Iowa Black FQ quencher. […]
Upon transcription of the InvadeR sequence, which contains 24 nucleotides of perfect complementarity to the reporter strand, the RNA product hybridizes to the single-stranded toehold region of the DNA output gate. This initiates a strand invasion reaction that eventually displaces the quencher strand and alleviates fluorescence quenching (the “ON” state). […]

CsoR = molecular target: T2, CsoR (Bacillus subtilis, UniProt O32222); test: CsoR regulated in vitro transcription of 3WJdB (copper sensor); format: biochemical; details: for reactivity of the copper sensor against metals: FIG. 25A
T2 construct: 6xHis; made in house; host or cells: E. coli Rosetta 2(DE3)pLysS
T2 sequence (O32222 1-101): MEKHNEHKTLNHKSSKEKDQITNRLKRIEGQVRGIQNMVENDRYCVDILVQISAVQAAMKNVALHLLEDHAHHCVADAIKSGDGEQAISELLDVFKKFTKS
Description: (§1) Next, we sought to tune the sensitivity of the copper sensor to meet the EPA regulated limit of copper in drinking water (1.3 ppm). Without any tuning, the sensor detects 0.3 ppm of copper and above (FIG. 26a). To desensitize the sensor to respond near the EPA regulated limit of copper, we reasoned that excess CsoR could be added to the reactions to act as a copper chelator. […] To further implement this strategy of tuning the amount of transcription factors to shift the sensitivity of a sensor, we determined if the lead sensor can be sensitized by decreasing the amount of CadC dimer. When the concentration was decreased from 1.5 μM to 0.5 μM of CadC, we were able to shift the dose response curve to be more sensitive in order to detect tens of ppb of lead (FIG. 26b).

MphR = MphR regulated in vitro transcription of 3WJdB; format: biochemical; details: FIG. 24
Description: Similarly, we tested the orthogonality of the TetR, OtrR, CtcS, and MphR with their respective ligands (FIG. 17). In the absence of the ligands or inducers, there was a strong repression of transcription by the ATFs as expected. Only the tetracycline antibiotics tested were able to cause an allosteric conformational change in TetR, OtrR, and CtcS and restore fluorescence signal equivalent to micromolar amounts of soluble FITC, confirming the results presented in FIG. 10A. Similarly, MphR was responsive to macrolide antibiotics, but not to any tetracycline antibiotics tested.

CadC = molecular target: T3, CadC (Staphylococcus aureus, UniProt P20047); test: CadC regulated in vitro transcription of 3WJdB (lead sensor); format: biochemical; details: CadC dimer decreased from 1.5 μM to 0.5 μM, FIG. 26b
T3 construct: 6xHis; made in house; host or cells: E. coli Rosetta 2(DE3)pLysS
T3 sequence (P20047 whole entry): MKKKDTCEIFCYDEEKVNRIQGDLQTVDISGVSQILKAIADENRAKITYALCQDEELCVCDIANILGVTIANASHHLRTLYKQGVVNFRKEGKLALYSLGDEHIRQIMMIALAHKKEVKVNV
Description: as §1

SAR2349 = SAR2349 (Staphylococcus aureus, UniProt Q6GEG9); details: FIG. 24
Chain of SAR2349 (Q6GEG9 whole entry): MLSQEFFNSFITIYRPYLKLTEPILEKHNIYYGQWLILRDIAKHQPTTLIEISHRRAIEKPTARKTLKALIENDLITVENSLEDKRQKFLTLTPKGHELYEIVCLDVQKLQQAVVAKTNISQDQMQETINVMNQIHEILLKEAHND
Description: In Vitro Transcription. DFHBI-1T was purchased from either Lucerna or Tocris Bioscience and resuspended in DMSO at 40 mM. 45 nmol of DFHBI-1T was used in each transcription reaction involving the 3WJdB aptamer. Data from FIG. 1 was generated using a HiScribe T7 Quick High Yield RNA Synthesis Kit from New England BioLabs following the manufacturer's protocol and using 1 μg of template DNA (˜5.2 pmol). All other T7 RNA polymerase transcriptions contained T7 transcription buffer (40 mM Tris-HCl pH 8.0, 20 mM NaCl, 10 mM DTT, 8 mM MgCl2, 2 mM spermidine), 8 mM NTPs, and 2 μL T7 RNA polymerase. Amount of template, inducer, and transcription factor are noted below each figure. T3 and SP6 RNA polymerase were purchased from New England BioLabs, and transcriptions using those polymerases were performed according to the manufacturers protocol. All transcriptions were performed at 37° C. and polymerase was added immediately before measurement.
Reactions were monitored in real time by measuring on a BioTek Synergy H1 plate reader set to incubate at 37° C. For the 3WJdB output, an excitation wavelength of 472 nm and emission wavelength of 507 nm was used with measurements every 3 minutes. For the InvadeR system, excitation and emission wavelengths were set at 495 nm and 520 nm respectively and measurements were taken every minute.

AdcR = molecular target: T4, AdcR (Streptococcus pneumoniae serotype 2, UniProt Q04I02); test: adcO-regulated KB2 kleptamer circuit with AdcR; format: biochemical; details: unregulated 3WJdB template and adcO regulated KB2 template, FIG. 23
T4 construct: Giedroc Lab (Indiana University Bloomington), gift
T4 sequence (Q04I02 whole entry): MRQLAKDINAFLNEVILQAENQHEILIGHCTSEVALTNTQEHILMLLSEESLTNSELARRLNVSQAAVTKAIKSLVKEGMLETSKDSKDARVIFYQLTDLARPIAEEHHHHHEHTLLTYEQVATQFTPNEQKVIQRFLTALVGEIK
Description: ATF ligand-mediated transcriptional repression can be inverted to ligand-mediated activation with RNA genetic circuitry. We next tested the kleptamer system with an ATF that is known to bind to its operator site in the presence of its cognate ligand and therefore cause ligand-mediated repression. AdcR is a MarR-family ATF and known to regulate genes encoding a high-affinity ABC uptake system for zinc and cell-surface zinc-binding pneumococcal histidine triad proteins.^36 Unlike the ATFs we tested previously, apo-AdcR is unbound to its operator site. Upon binding Zn(II), AdcR undergoes a conformational change that results in binding to the operator site. We placed an operator site recognized by AdcR (adcO) upstream of the KB2 kleptamer so that when zinc is present, the transcription of the KB2 kleptamer is repressed by the AdcR-zinc complex and the fluorescence-activating 3WJdB aptamer is produced.

T1 sequence (P04483 whole entry): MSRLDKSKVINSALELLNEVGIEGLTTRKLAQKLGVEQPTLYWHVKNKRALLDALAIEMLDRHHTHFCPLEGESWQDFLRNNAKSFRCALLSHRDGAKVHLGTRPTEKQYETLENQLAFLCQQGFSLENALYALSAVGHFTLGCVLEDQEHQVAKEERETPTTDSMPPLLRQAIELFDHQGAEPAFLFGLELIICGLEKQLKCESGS

Cc1c2c(c(O)c3c(O)cccc13)C(=O)[C@]1(O)C(=O)C(C(N)=O)=C(O)[C@@H](N(C)C)[C@@H]1C2 [anhydrotetracycline]
relief of TetR repression, aptamer-activated fluorescence (TetR [1]): restored aptamer-activated fluorescence close to or exceeding the level of fluorescence observed | relief of TetR repression (TetR [2]; SP6 RNAP, FIG. 11B): repression is partially relieved | relief of TetR repression (TetR [2]; T3 RNAP, FIG. 11A): repression is partially relieved | derepression/induction of TetR-repressed InvadeR system (TetR [3]): derepression/induction

[Cu+2] [copper]
sensitivity of the sensor (CsoR; CsoR tetramer increased to 7.5 μM, FIG. 26a): 1 ppm | signal across ligand families (CsoR; FIG. 24): strong signals from cognate ligands with minimal crosstalk | reactivity of the copper sensor against metals (CsoR): can respond to copper as well as zinc | concentration detected by the sensor (CsoR; without any tuning, CsoR tetramer 2.5 μM, FIG. 26a): ≥ 0.3 ppm

CC[C@H]1OC(=O)[C@H](C)[C@@H](O[C@H]2C[C@@](C)(OC)[C@@H](O)[C@H](C)O2)[C@H](C)[C@@H](O[C@@H]2O[C@H](C)C[C@H](N(C)C)[C@H]2O)[C@](C)(O)C[C@@H](C)C(=O)[C@H](C)[C@@H](O)[C@]1(C)O [erythromycin]
signal across ligand families (MphR): strong signals from cognate ligands with minimal crosstalk

[Pb+2] [lead]
concentration detected by the sensor (CadC): tens of ppb

O=C(O)c1ccccc1O [salicylate]
signal across ligand families (SAR2349): strong signals from cognate ligands with minimal crosstalk

[Zn+2] [zinc]
reactivity of the copper sensor against metals (CsoR): can respond to copper as well as zinc | fluorescence-activation on titration of ligand (AdcR): increased fluorescence-activation
